Assay results: patent US20040209270A1, “Method for identifying macrocyclic polyketides” (priority 2001, published 2004)

system: biosensor E. coli SM 101 (EBZ512, pEBZ511, pEBZ514); experiment: Luminescence measurements in the agar-plate diffusion assay with the E. coli biosensor system (luciferase reporter under mph(A) promoter / MphR(A) control); format: cell-based; conditions: assay discs, 28° C., 2 to 4 hours or 15 to 24 hours, FIG. 3
Protocol: The agar-plate diffusion assay was incubated at 28° C. for 2 to 4 hours or 15 to 24 hours and luminescence was recorded using a Berthold Luminograph LB980 (FIGS. 3, 4 and 5). If luminescence is stimulated, it is detectable within a diffusion zone around the sample placed. If the sample assayed has, at the same time, an anti-bacterial activity against the sensor organism, which is noticeable as a zone of inhibition in the very preferred embodiment of the longer incubation, then the stimulation of luminescence is detectable outside this halo of inhibition in the sub-lethal concentration range.
(§1) Agar-plate diffusion assay and luminescence measurements using the E. coli biosensor system. Illustration of the selectivity of the biological sensor component. The numbers given in the information on the test substances indicate the amounts of substance applied in μg.
as §1, with “Exemplary illustration” for “Illustration”, “stimulation of luminescence” for “selectivity”, “component as a function of time.” for “component.”

**Q.** How did the “stimulation of luminescence of the biosensor system” value (“stimulation” below) turn out when `CC[C@H]1OC(=O)[C@H](C)[C@@H](O[C@H]2C[C@@](C)(OC)[C@@H](O)[C@H](C)O2)[C@H](C)[C@@H](O[C@@H]2O[C@H](C)C[C@H](N(C)C)[C@H]2O)[C@](C)(O)C[C@@H](C)CN(C)[C@H](C)[C@@H](O)[C@]1(C)O` [azithromycin] was run?
**A.** Its value is “stimulated”.

**Q.** With `O=C(N[C@H](CO)[C@H](O)c1ccc([N+](=O)[O-])cc1)C(Cl)Cl` [chloramphenicol] as the compound, how does the “stimulation” value read?
**A.** The value was “do not cause a stimulation of luminescence”.

**Q.** For `CC[C@H]1OC(=O)[C@H](C)[C@@H](O[C@H]2C[C@@](C)(OC)[C@@H](O)[C@H](C)O2)[C@H](C)[C@@H](O[C@@H]2O[C@H](C)C[C@H](N(C)C)[C@H]2O)[C@](C)(OC)C[C@@H](C)C(=O)[C@H](C)[C@@H](O)[C@]1(C)O` [clarithromycin], which “stimulation” value is on record?
**A.** The value was “indicates”.

**Q.** `CC[C@H]1OC(=O)[C@H](C)[C@@H](O[C@H]2C[C@@](C)(OC)[C@@H](O)[C@H](C)O2)[C@H](C)[C@@H](O[C@@H]2O[C@H](C)C[C@H](N(C)C)[C@H]2O)[C@](C)(O)C[C@@H](C)C(=O)[C@H](C)[C@@H](O)[C@]1(C)O` [erythromycin] was tested. Which “stimulation” value did it give?
**A.** The value was “indicates”.

**Q.** `C[C@@H]1O[C@@H]1P(=O)(O)O` [fosfomycin] was tested. Which “stimulation” value did it give?
**A.** The value was “do not cause a stimulation of luminescence”.

**Q.** With `CC[C@H]1OC(=O)[C@H](C)[C@@H](O[C@@H]2O[C@H](C)C[C@H](N(C)C)[C@H]2O)[C@@H](C)C[C@@H](C)C(=O)/C=C/[C@]1(C)O` [methymycin] as the compound, how does the “stimulation” value read?
**A.** The value was “stimulated”.

**Q.** How did the “stimulation” value turn out when `CC[C@H]1OC(=O)[C@H](C)C(=O)[C@H](C)[C@@H](O[C@@H]2O[C@H](C)C[C@H](N(C)C)[C@H]2O)[C@@H](C)C[C@@H](C)C(=O)/C=C/[C@H]1C` [narbomycin] was run?
**A.** The value was “indicates”.

**Q.** How did the “stimulation” value turn out when `CO[C@@H]1[C@@H](OC(N)=O)[C@@H](O)[C@H](Oc2ccc3c(O)c(NC(=O)c4ccc(O)c(CC=C(C)C)c4)c(=O)oc3c2C)OC1(C)C` [novobiocin] was run?
**A.** Its value is “do not cause a stimulation of luminescence”.

**Q.** With `CO[C@H]1C[C@H](O[C@H]2[C@H](C)[C@@H](O[C@@H]3O[C@H](C)C[C@H](N(C)C)[C@H]3O)[C@@H](C)C[C@@]3(CO3)C(=O)[C@H](C)[C@@H](O)[C@@H](C)[C@@H](C)OC(=O)[C@@H]2C)O[C@@H](C)[C@@H]1O` [oleandomycin] as the compound, how does the “stimulation” value read?
**A.** Its value is “indicates”.

**Q.** With `CC[C@H]1OC(=O)[C@H](C)C(=O)[C@H](C)[C@@H](O[C@@H]2O[C@H](C)C[C@H](N(C)C)[C@H]2O)[C@@H](C)C[C@@H](C)C(=O)/C=C/[C@]1(C)O` [picromycin] as the compound, how does the “stimulation” value read?
**A.** The value was “indicates”.

**Q.** How did the “stimulation” value turn out when `CN[C@H](CC(C)C)C(=O)N[C@H]1C(=O)N[C@@H](CC(N)=O)C(=O)N[C@H]2C(=O)N[C@H]3C(=O)N[C@H](C(=O)N[C@H](C(=O)O)c4cc(O)cc(O)c4-c4cc3ccc4O)[C@H](O)c3ccc(c(Cl)c3)Oc3cc2cc(c3O[C@@H]2O[C@H](CO)[C@@H](O)[C@H](O)[C@H]2O[C@H]2C[C@](C)(N)[C@H](O)[C@H](C)O2)Oc2ccc(cc2Cl)[C@H]1O` [vancomycin] was run?
**A.** The value was “do not cause a stimulation of luminescence”.

system: microbial biosensor cell (E. coli biosensor system); experiment: Detection of a macrolide-(erythromycin-) producing organism in situ, agar-plate diffusion assay with the biosensor; format: cell-based; conditions: assay disc or culture-covered agar blocks placed on biosensor suspension in soft agar; FIG. 5
From the text: For this purpose, the microbial biosensor cell was used in the agar-plate diffusion assay. Agar blocks were placed on the biosensor suspension embedded in soft agar. These agar blocks were covered either with Saccharopolyspora erythraea DSM 40517 described as erythromycin producer or with Streptomyces viridochromogenes DSM 40721 described as avilamycin producer. Another agar block contained no growth.
Agar-plate diffusion assay and luminescence measurements using the E. coli biosensor system. In situ stimulation of luminescence by an erythromycin-producing Saccharopolyspora erythraea culture. The number given in the information on the reference substance erythromycin indicates the amount of substance applied in μg.

**Q.** How did the “stimulation” value turn out when `CC[C@H]1OC(=O)[C@H](C)[C@@H](O[C@H]2C[C@@](C)(OC)[C@@H](O)[C@H](C)O2)[C@H](C)[C@@H](O[C@@H]2O[C@H](C)C[C@H](N(C)C)[C@H]2O)[C@](C)(O)C[C@@H](C)C(=O)[C@H](C)[C@@H](O)[C@]1(C)O` [erythromycin] was run?
**A.** Its value is “stimulation of luminescence was detectable”.
